Legend:
Experiment in all cases: relative viability (nuclei count vs DMSO), 5 days (fraction); higher = more cells survive
Crenolanib + Navitoclax = compound: CC1(COc2ccc3c(c2)ncn3-c2ccc3cccc(N4CCC(N)CC4)c3n2)COC1 [Crenolanib] + CC1(C)CCC(c2ccc(Cl)cc2)=C(CN2CCN(c3ccc(C(=O)NS(=O)(=O)c4ccc(N[C@H](CCN5CCOCC5)CSc5ccccc5)c(S(=O)(=O)C(F)(F)F)c4)cc3)CC2)C1 [Navitoclax] (partner 0.5 µM)
In short: (§1)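 Cells from lung cancer lines were seeded into 1536-well plates and, one day later, dosed by pin tool. Treatments were either a single drug or a fixed dose of an anchor drug with five library-drug doses (not always all listed) in √10 steps. After 5 days, nuclei were stained in a one-step fixation (final 0.05% Triton X-100, 1% formaldehyde, 1 ug/ml Hoechst) and counted on 4× images, and relative viability is the treated-to-vehicle nuclei ratio, as the median of duplicate plates.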

Crenolanib + Foretinib = compound: CC1(COc2ccc3c(c2)ncn3-c2ccc3cccc(N4CCC(N)CC4)c3n2)COC1 [Crenolanib] + COc1cc2c(Oc3ccc(NC(=O)C4(C(=O)Nc5ccc(F)cc5)CC4)cc3F)ccnc2cc1OCCCN1CCOCC1 [Foretinib] (partner 0.25 µM)
In short: as §1

Tivantinib = compound: O=C1NC(=O)[C@@H](c2cn3c4c(cccc24)CCC3)[C@@H]1c1c[nH]c2ccccc12 [Tivantinib]
In short: (§2)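 Acceptance criteria were a control CV below 25% and at least one doubling per plate. Lung cancer cell lines in 1536-well plates got five library-drug doses (not always all listed) √10 apart by pinning and were left 5 days with no medium change. Viability divides treated-well nuclei by vehicle-well nuclei and is the median across plates. Nuclei were counted by MetaXpress from 4× Hoechst images.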

Crenolanib = compound: CC1(COc2ccc3c(c2)ncn3-c2ccc3cccc(N4CCC(N)CC4)c3n2)COC1 [Crenolanib]
In short: as §2

Cell Line	relative viability (Crenolanib + Navitoclax; first compound 0.01 µM)	relative viability (Crenolanib + Navitoclax; first compound 0.03162 µM)	relative viability (Crenolanib + Navitoclax; first compound 0.1 µM)	relative viability (Crenolanib + Navitoclax; first compound 0.3162 µM)	relative viability (Crenolanib + Navitoclax; first compound 1 µM)	relative viability (Crenolanib + Foretinib; first compound 0.01 µM)	relative viability (Crenolanib + Foretinib; first compound 0.03162 µM)	relative viability (Crenolanib + Foretinib; first compound 0.1 µM)	relative viability (Crenolanib + Foretinib; first compound 0.3162 µM)	relative viability (Crenolanib + Foretinib; first compound 1 µM)	relative viability (Tivantinib; 0.01 µM)	relative viability (Tivantinib; 0.03162 µM)	relative viability (Tivantinib; 0.1 µM)	relative viability (Crenolanib; 0.01 µM)	relative viability (Crenolanib; 0.03162 µM)	relative viability (Crenolanib; 0.1 µM)	relative viability (Crenolanib; 0.3162 µM)	relative viability (Crenolanib; 1 µM)	relative viability (Tivantinib; 0.3162 µM)
NCI-H322M	1.12	1.14	1.19	1.28	1.38	0.951	1.07	0.973	0.96	0.98	0.958	0.865	0.928	0.936	0.911	0.953	0.811	0.912	–
NCI-H520	0.962	1.13	1.01	1.15	1.01	0.671	0.89	0.651	0.724	0.746	1.14	0.968	0.867	0.93	0.999	1.05	0.908	1.05	0.964
NCI-H727	0.57	0.414	0.462	0.467	0.362	0.915	0.975	0.835	0.893	0.809	0.941	0.897	0.802	0.949	1.05	0.873	0.943	0.909	0.631
NCI-H1793	0.441	0.362	0.386	0.386	0.511	0.669	0.895	0.64	0.608	0.689	0.923	0.98	0.837	0.909	1.02	0.811	1.07	0.88	0.61
NCI-H1755	0.974	1.02	0.998	1.01	0.993	0.944	0.905	0.889	0.937	0.908	1.05	0.991	0.956	0.965	1.03	0.989	1.03	0.959	1.09
NCI-H1299	1.04	1.04	0.987	1.08	1.06	1.1	1.04	1.06	1.05	1.11	0.998	0.986	0.998	1.01	0.995	0.982	1.02	0.997	1.03
HARA	1.13	1.16	1.16	1.18	1.16	0.956	0.979	0.84	0.912	0.911	0.982	0.775	0.941	1.07	1	0.945	1	1.05	0.625
201T	1.19	1.21	1.16	1.16	1.24	1.19	1.1	1.03	1.12	1.06	0.966	0.938	0.924	0.97	0.983	0.972	0.988	1.01	1.01
NCI-H2228	0.796	0.62	0.764	1.24	1.3	0.994	0.923	0.693	1.14	1.04	1.03	0.893	0.931	0.944	1	0.871	1.11	1.1	0.815
IA-LM	0.749	0.692	0.809	0.95	0.948	1.37	1.1	1.08	1.22	1.3	0.956	0.897	0.864	1.1	0.888	0.852	1.07	1.1	0.978
CAL-12T	1.48	1.19	1.22	1.48	1.26	1.15	1.05	1.18	1.33	1.22	1.1	0.853	0.969	1.07	0.948	0.984	1.05	0.992	0.627
NCI-H596	1.02	1.04	0.805	0.899	0.822	0.774	0.89	0.752	0.78	1.03	1.08	0.826	0.92	0.912	1.04	0.948	0.946	0.972	1.01
NCI-H2085	1.08	1.12	1.09	1.24	1.17	1.01	0.845	0.847	1.04	1.12	1.03	0.981	0.974	1	1.01	0.948	0.997	0.978	0.905
NCI-H2023	1.02	0.996	0.977	1.09	0.956	0.785	1.01	0.942	1.05	1.02	1.02	0.859	0.856	1.1	1.03	0.952	1.17	0.785	0.824
